Values joined by “and” are separate entries in the source; they are usually repeats but may differ in a detail not shown here. Equal entries are not always repeated. “Also recorded” adds a separate entry of the source.
Key:
Assay type in all cases: in vivo
[1] = tested on: LPS pretreated mice; test: Radiant tail flick antinociception, LPS pretreated mice
Method: Compounds were dissolved in 10% DMSO and then diluted to less than 1% DMSO in the test solutions. […] Compounds were administered in a 5-μl volume in conscious mice, either i.c.v. (Haley T J & McCormick W G, Br J Pharmacol Chemother, 1957, 12(1), 12-15) or i.t. (Hylden J L K & Wilcox G L, Eur. J. Pharmacol., 1980, 67(2-3), 313-316). Peak times were determined by comparing the percent maximal possible effect (% MPE) at 5, 10, 20 and 60 minutes after injection.
The first group mice were pretreated with lipopolysaccaride (LPS, 1 mg/kg, i.p. from Escherichia coli 0111:B4; Sigma-Aldrich, St. Louis, Mo.) for 24 hours before testing for antinociception of compounds 2-6 (Seo Y-J, et al., Pharmacol., Biochem. Behav., 2008, 91, 121-127). This group was compared to a group without pretreatment.
The tail flick assay is used first to test for antinociception as described by D'Amour and Smith (D'AMOUR FE & SMITH DL (1941) J. Pharmacol. Exp. Ther. 72(1):74-79) and modified by Dewey et al. (Dewey W L, Harris L S, Howes J F, & Nuite JA (1970) J. Pharmacol. Exp. Ther. 175(2):435-442). For the measurement of the tail-flick latency, mice are wrapped in a light cloth and held gently in one hand with the tail positioned in the apparatus (Tail Flick Analgesia Meter, Columbus Instruments, Columbus, Ohio) for radiant heat stimulus. The tail-flick response is elicited by applying radiant heat to the dorsal side of the tail. The intensity of the heat is set so that the mouse flicks its tail within 2 to 3 seconds. The test latency is measured before drug treatment (control) and again after the drug treatment (test) at the peak time of the compound; a 10 second maximum cut-off time is used to prevent damage to the tail. Antinociception is quantified according to the Harris L S & Pierson A K, J. Pharmacol. Exp. Ther., 1964, 143(2):141-148, as the percent maximal possible effect (% MPE), which is calculated as: % MPE=(Test−Control/10−Control)×100.
At least three groups of four to ten mice are used for each dose response curve. ED50 values with 95% confidence intervals (C.I.) are computed with GraphPad Prism 4 by using nonlinear regression methods.

[2] = tested on: mice; test: Rota-Rod motor performance, CFA injected mice; conditions: i.t., after the 48 hour measurement post CFA
Method: To first evaluate the effects of CFA injection on motor coordination, a group of 10 animals were tested on the Rotamex (Columbus Instruments Rotamex 4/8 instrument) for performance. Animals were trained three days prior to undergoing 3-5 minute trials on an accelerating rotating rod (0-20 RPMs). Motor performance was evaluated at 2, 4, 6, 24 and 48 hours post injection. Compound 4c was then injected i.t. and the motor performance was evaluated at 5 and 20 minutes. The time to the first fall were recorded and compared with controls (Kovacs K J, et al., Pain, 2008, 136, 75-84). The results for compound 4c are illustrated in FIG. 10.

[3] = tested on: C3H mice with bone cancer; test: von Frey mechanical hyperalgesia, bone cancer (fibrosarcoma) mice
Method: The mouse hind paw model of bone cancer was the third model of pain (Wacnik P W, et al., Pain Research & Management, 2000, 16, 615-637; and Wacnik P W, et al., J Neurosci, 2001, 21(23), 9355-9366). Cell Culture: National Collection of Type Cultures (NCTC) clone 2472 fibrosarcoma cells, originally derived from a connective tissue tumor in a C3H mouse, were obtained from the American Type Cell Culture Collection (Rockville, Md.). Cells were grown and maintained in accordance with standard cell culturing techniques. NCTC cells were grown to 80-90% confluence in 75 cm^2 flasks (Corning, Lowell, Mass.) in Dulbecco's Modification of Eagles Medium (Invitrogen, Carlsbad, Calif.) fortified with 10% Horse Serum and sodium bicarbonate. Cell cultures were housed in a water-jacketed incubator with 5% carbon dioxide at 37° C.
Cells were prepared for implantation by first pouring off the culture medium and washing with phosphate-buffered saline (PBS). Trypsin was added to flask and placed in incubator for 3 minutes. Upon detachment, cells were suspended in an ample amount of culture medium to terminate enzymatic activity and centrifuged for 10 min at 1000 g. Fibrosarcoma cells were re-suspended in a known amount of PBS for counting, quantified on a hemacytometer, pelleted and re-suspended in PBS. Fibrosarcoma cells were again re-suspended to a final concentration of 2×10^5 cells in 20 μl. Initially, animals were anesthetized in a plexi-glass chamber using 3% isoflurane in 3 L/min oxygen. Once each mouse was completely anesthetized, a maintenance rate of 2% isoflurane in 1.5 L/min oxygen was maintained during the short implantation procedure. Tumor cells were manually injected by boring into the calcaneus bone using a 29½ gauge needle connected to a sterile 0.3 ml insulin syringe as previously described (19). Following injection, mice were allowed to recover in cages on a heating pad. Animals showing any signs of dysfunction (e.g. problems with ambulation, lethargy or excessive bleeding) or distress where euthanized according to CO2 guidelines.
C3H mice were was placed under a clean glass cup on a wire mesh grid and allowed to acclimate for thirty minutes. Mechanical hypersensitivity was tested using a von Frey filament #3.61 (which produces a force of […]) to the plantar surface of both the left and right hind paw with enough force to cause it to bow slightly. Starting with the right hind paw, the number of positive responses out of a total of 10 applications was recorded followed by the left hind paw. Positive response was indicated by a sharp withdrawal or flinching behavior of the paw. Baseline von Frey measurements were obtained prior to treatment with CFA, tumor and saline controls. […] Subsequent measurements were taken at various time points after intrathecal (i.t.) injection of test compounds on days 3, 7, 10, 14, 17, and 21. % MPE was calculated ((Time-point value−Day# baseline)/(Day 0 baseline−day# baseline))*100 (Smeester B A, Al-Gizawiy M, & Beitz A J (2012) Evidence-Based Complementary and Alternative Medicine 2012:16). Animals with saline injection served as controls for tumor cell implantation and tumor-induced nociception. Behavioral assessments were conducted during the light cycle at approximately the same time each day. The investigator performing the von Frey testing was blinded to the animal and compound injected.
A well-established rodent hind paw model of bone cancer pain (Wacnik P W, et al., J Neurosci. 2001, 21(23), 9355-66) was to examine the effects of representative bivalent ligands on tumor-induced nociception. The inbred C3H/He line is syngeneic to the fibrosarcoma cells used in these experiments and allows these cells to grow tumors without rejection. Male C3H mice were used for all experiments. Animals were maintained on a 12 hour light/dark cycle with food and water ad libitum.
Cells were prepared for implantation by first pouring off the culture medium and washing with phosphate-buffered saline (PBS). […]

## Cc1cccc(C#Cc2cccc(OCCNC(=O)COCC(=O)NCCCCCNC(=O)COCC(=O)N[C@H]3CC[C@@]4(O)C5Cc6ccc(O)c7c6[C@@]4(CCN5C)[C@H]3O7)c2)n1 [Compound 4c, N-((4aS,7S,7aR,12bS)-4a,9-dihydroxy-3-methyl-2,3,4,4a,5,6,7,7a-octahydro-1H-4,12-methanobenzofuro[3,2-e]isoquinolin-7-yl)-2-((1-(3-((6-methylpyridin-2-yl)ethynyl)phenoxy)-4,8,16-trioxo-6-oxa-3,9,15-triazaheptadecan-17-yl)oxy)acetamide]
[1]; LPS pretreated (1 mg/kg 24 hours i.p.), i.c.v.
  ED50 (CI) i.c.v.: 374.9 pmol/mouse
[1]; LPS pretreated (1 mg/kg 24 hours i.p.), i.t.
  ED50 (CI) i.t.: < 9 fmol/mouse and 9 fmol/mouse and 8.83 fmol/mouse
[1]; LPS pretreated, tail flick, dose of the acute tolerance test
  antinociception: 97%
[2]
  time on the Rotamex (time to first fall): stayed on the Rotomex for a longer period of time
[3]; bone cancer mice, i.t.
  Tolerance: without tolerance; also recorded: absence of tolerance
[3]; bone cancer, PID 21, 1 nmol i.t.
  duration of significant antinociception: 12 h
[3]; bone cancer, PID 21, single 10 nmol i.t.
  duration of antinociception: 24 h and > 24 h
[3]; bone cancer, day 21, i.t.
  ED50 i.t.: 0.01 fmol/mouse
[3]; bone cancer, i.t., beginning on PID 3
  antinociception in tumor-bearing mice: potent antinociception

Reference: patent US9981043B2, “Analgesic conjugates” (priority 2013, dated 2018)
